Source: patent US7390797B2, “Fused indazole compounds” (Eisai Co., Ltd., priority 2002, dated 2008)

molecular target: T1, Human JNK 3 (Homo sapiens, UniProt P53779); experiment: Determination of JNK 3 Inhibition; format: biochemical; settings: GST-JNK 3 enzyme, GST-c-Jun (1-169) substrate, [γ-33P]ATP, 3.33 μM ATP, 30 minutes, SPA beads
T1 construct: made in house; host or cells: Escherichia coli
Protocol: Test Example 1 Determination of JNK 3 Inhibition
Human JNK 3 was expressed as a fusion protein (GST-JNK 3) with glutathione S-transferase (GST) in Escherichia coli and was purified using glutathione Sepharose 4B beads. The amino acid sequence 1-169 of c-Jun was […] as a fusion protein (GST-c-Jun) with GST in Escherichia coli, was purified using glutathione Sepharose 4B beads and was used as a substrate. A test compound was diluted with 100% dimethyl sulfoxide into 10 mM and was then further diluted with 10% aqueous dimethyl sulfoxide solution to yield a dilution series. To each well of 96-well OPTI plate (available from Packard) were placed 20 μl of the diluted compound, 30 μl of a substrate solution (1.2 μg of GST-c-Jun, […], 0.2 μCi of [γ-^33P]ATP, 25 mM of HEPES pH=7.5, 10 mM of magnesium acetate, and 3.33 μM of ATP), and 50 μl of an enzyme solution (0.04 μg of GST-JNK 3, 25 mM of HEPES pH=7.5, and 10 mM magnesium acetate) up to 100 μl, and the mixture was allowed to react for 30 minutes. After terminating the reaction by adding 100 μl of a reaction terminator (80 mM ATP, 5 mg/ml glutathione SPA beads (available from Amersham Pharmacia Biotech)), the reaction mixture was shaken for 30 minutes. The mixture was centrifuged at room temperature at 1000×g for 5 minutes, and the emission intensity thereof was determined on a TopCount™ illuminator (available from Packard). The activity is expressed by the 50% inhibitory concentration on the enzymatic activity of JNK, i.e., IC50 (nM).

T1 sequence (P53779 whole entry): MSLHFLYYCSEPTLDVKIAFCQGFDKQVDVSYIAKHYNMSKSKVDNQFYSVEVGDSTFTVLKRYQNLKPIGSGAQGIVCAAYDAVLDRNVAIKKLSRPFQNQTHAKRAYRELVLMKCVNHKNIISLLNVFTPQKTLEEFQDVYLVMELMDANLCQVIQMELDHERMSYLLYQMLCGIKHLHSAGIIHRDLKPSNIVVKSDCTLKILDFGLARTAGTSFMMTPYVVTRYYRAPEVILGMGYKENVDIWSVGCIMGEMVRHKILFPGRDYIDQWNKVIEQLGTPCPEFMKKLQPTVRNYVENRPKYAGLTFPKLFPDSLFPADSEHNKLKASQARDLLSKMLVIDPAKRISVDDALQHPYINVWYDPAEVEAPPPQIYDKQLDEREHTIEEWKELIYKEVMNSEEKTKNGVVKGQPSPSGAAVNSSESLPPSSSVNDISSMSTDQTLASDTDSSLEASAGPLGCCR

IC50 | SMILES
≤ 300 nM | OCc1cccc2c1CCc1cccc3[nH]nc-2c13 [Example 1, 6,7-Dihydro-2H-benzo[6,7]cyclohepta[cd]indazol-8-ylmethanol]
≤ 300 nM | OCc1cccc2c1C=Cc1cccc3[nH]nc-2c13 [Example 6, 2H-Benzo[6,7]cyclohepta[cd]indazol-8-ylmethanol]
≤ 300 nM | Nc1cccc2c1CCc1cccc3[nH]nc-2c13 [Example 8, 6,7-Dihydro-2H-benzo[6,7]cyclohepta[cd]indazole-8-amine]
≤ 300 nM | C1=Cc2cccc3[nH]nc(c23)-c2ccccc21 [Example 9, 2H-Benzo[6,7]cyclohepta[cd]indazole]
≤ 300 nM | O=C(NCc1ccco1)c1cccc2c1C=Cc1cccc3[nH]nc-2c13 [Example 20, N8-(2-Furylmethyl)-2H-benzo[6,7]cyclohepta[cd]indazole-8-carboxamide]
≤ 300 nM | O=C(NC1CC1)c1cccc2c1C=Cc1cccc3[nH]nc-2c13 [Example 21, N8-Cyclopropyl-2H-benzo[6,7]cyclohepta[cd]indazole-8-carboxamide]
≤ 300 nM | Cc1ccc2[nH]nc3c2c1NC(=O)c1ccccc1-3 [Example 25, 5-Methyl-6,7-dihydro-2H-benzo[5,6]azepino[4,3,2-cd]indazol-7-one]
≤ 300 nM | Cc1cc(Br)c2[nH]nc3c2c1NC(=O)c1ccccc1-3 [Example 26, 3-Bromo-5-methyl-6,7-dihydro-2H-benzo[5,6]azepino[4,3,2-cd]indazol-7-one]
